Laboratory results as given in patent US8614230B2, “Derivatives of the aminated hydroxyquinoline class for treating cancers” (Biopharmed, priority 2007, dated 2013).
Like-named read-outs stand apart in the source and are kept apart here.

Experiments:
[1] = tested on: MCF7; assay: Cytotoxicity IC50 on MCF7 cells; format: cell-based; details: Homo sapiens
Method: (§1) The preceding KB cells are then incubated in 6- or 96-well plates in the presence of the test compounds of the invention, dissolved in dimethyl sulfoxide (DMSO). The content of surviving cells is measured by the “colony-forming assay” test, in which the cells are redistributed at a density of 100 to 300 cells per well in 24-well plates, for a period of 8 days, and are then stained with Leishman's reagent (0.2% in methanol). The colonies of more than 50 cells are counted visually under a microscope, the survival rate being expressed on the colonies formed in the presence of the compounds of the invention relative to cell colonies not treated with said compounds. The determination of the IC50 values (concentration of compounds in the reaction medium for which 50% of the tested tumor cells survived the treatment) enables comparison of the efficacy of these compounds.
(§2) Table 4 presents the results of the IC50 (cytotoxicity) on different cell lines, according to the protocol described previously, obtained for compounds I14 and I20.

[2] = tested on: MCF7R; assay: Cytotoxicity IC50 on MCF7R cells; format: cell-based; details: Homo sapiens
Method: as §1, §2

[3] = tested on: caspases 9; assay: Activation of caspases 9 in HL60 cells; format: cell-based, human; details: 48 hours, 1 μM, 0.1 μM and 0.01 μM
Method: (§3) In this example, in order to show the role of compounds I14 and I20 in this effect, specific products were used: DEVD for caspases 3/7, IEDT for caspases 8, and LEHD for caspases 9. Moreover, colchicine was used as reference compound that induces this activity of caspases. I14 and I20 were tested at three concentrations: 1 μM, 0.1 μM and 0.01 μM.
(§4) The experiments were performed by placing I14 and I20 in contact with HL60 cells for 48 hours, according to the standard protocol described by Margolin et al., J. Biol. Chem. (1997), 272, p. 7223, using standard commercially available diagnostic kits (Calbiochem, USA).

[4] = tested on: caspases 8; assay: Activation of caspases 8 in HL60 cells; format: cell-based, human; details: 48 hours, 1 μM, 0.1 μM and 0.01 μM
Method: as §3, §4

[5] = tested on: HL60; assay: Cytotoxicity IC50 on HL60 cells; format: cell-based; details: Homo sapiens, HL-60
Method: as §1, §2

[6] = tested on: PC3; assay: Cytotoxicity IC50 on PC3 cells; format: cell-based; details: Homo sapiens, PC-3
Method: as §1, §2

[7] = tested on: caspases 3/7; assay: Activation of caspases 3/7 in HL60 cells; format: cell-based, human; details: 48 hours
Method: as §3, §4

[8] = tested on: K562; assay: Cytotoxicity IC50 on K562 cells; format: cell-based; details: Homo sapiens
Method: as §1, §2

[9] = tested on: U87/GFP cells; assay: Antiproliferative effect on U87/GFP cells (flash cytometry); format: cell-based, human
Method: For the U-87/GFP cells, the control of cell proliferation and migration in the presence of the compounds (I) of the invention is performed via a colorimetric method (MTS) and is performed according to known standard protocols. The methodologies implemented use flash cytometry (Trophos S.A., Marseilles, France). The flash cytometry technique involves fluorescence, which consists of irradiating a compound at a set wavelength and of recording the fluorescence emitted at another wavelength. This technique is performed with a flash cytometer and adapted for 96-well test plates. The excitation and emission wavelengths in the context of use of this fluorescence are located in the 485-495 nm range. The measured fluorescence expresses the amount of cells surviving after treatment with the compounds of the invention. The publications by Luby-Phelps K. et al., J. Histochemistry and Cytometry, 2003, 51, 271-274 and Modarai B. et al., Circulation, 2005, 111, 2645-2653 may be mentioned by way of reference for the above methods.
The cells of the U87/GFP lines are cultured in 96-well plates according to a standard methodology described by Bajetto et al., Neurochemistry International, 2006, 43, 31-38 in the presence of different concentrations of the compounds of the invention.
The cell proliferation is determined and quantified according to standard methods known to those skilled in the art. A 100% proliferation is attributed to the untreated cells and a percentage less than 100% is obtained when the same cells are treated with the compounds of the invention.
(§5) The cell proliferation and migration are determined by imaging using a flash cytometer (Trophos S.A., Marseilles, France), and the calculations are performed using the “Metamorph 4.6” imaging signal processing software (Molecular Devices, USA), the use of which, which is known in the field, makes it possible to determine the above two effects independently of each other.

[10] = tested on: SF268; assay: Cytotoxicity IC50 on SF268 cells; format: cell-based; details: Homo sapiens, SF-268
Method: as §1, §2

[11] = tested on: A549; assay: Cytotoxicity IC50 on A549 cells; format: cell-based; details: Homo sapiens
Method: as §1, §2

[12] = tested on: HTC15; assay: Cytotoxicity IC50 on HTC15 cells; format: cell-based; details: Homo sapiens
Method: as §1, §2

[13] = tested on: HTC116; assay: Cytotoxicity IC50 on HTC116 cells; format: cell-based; details: Homo sapiens
Method: as §1, §2

[14] = tested on: U87/GFP cells; assay: Antimigratory effect on U87/GFP cells (scratch technique); format: cell-based, human
Method: The determination of the antimigratory activity of the compounds (I) of the invention on these same cell lines, cultured in MEM medium (Minimum Essential Medium) is performed via the “scratch” technique that consists in scratching a cell lawn using a micropipette cone. By comparison with these same cells not containing the compounds of the invention, the antimigratory effect is determined. A 100% migration is attributed to the untreated cells, whereas, as a function of the concentration of the compounds (I) of the invention, total stoppage of migration is determined by observation of the “scratch” remaining unfilled by the cell migration, by means of computer software.
as §5

[15] = tested on: OV3; assay: Cytotoxicity IC50 on OV3 cells; format: cell-based; details: Homo sapiens
Method: as §1, §2

[16] = tested on: HepG2; assay: Cytotoxicity IC50 on HepG2 cells; format: cell-based; details: Homo sapiens
Method: as §1, §2

[17] = tested on: KB cells; assay: Cytotoxicity / cell viability on KB cells (colony-forming assay); format: cell-based, human; details: for IC50: Homo sapiens, KB, read-out: Cytotoxicity on KB cells (IC50)
Method: Cancerous KB cells are also considered, to determine the cell viability (or survival rate). This cell viability is determined according to the teaching of Nicholson K. M. et al., British Journal of Cancer, 1999, 81, 423-430.
KB cells are human carcinoma cell lines, KB-3-1. These cells are maintained in a culture medium, “Dulbecco's modified Eagle's medium” (DMEM—Sigma), which contains 0.11 g/l of sodium pyruvate and 4.5 g/l of glucose, supplemented with 10% (v/v) fetal calf serum, penicillin (32 μg/ml) and streptomycin (50 μg/ml). The cells are cultured as monolayers and are incubated at 37° C. in a humid atmosphere (95% air/5% CO2).
as §1

IC50 ([9]; concentration giving 65% inhibition of proliferation): 500 nM
IC50 ([14]; concentration giving 40% inhibition of migration): 500 nM
Structure (SMILES): Cc1ccc(CN(Cc2ccc(O)c3ncccc23)c2ccc(O)c3ncccc23)cc1 [I14, 5-(((8-hydroxyquinolin-5-yl)(4-methylbenzyl)amino)methyl)quinolin-8-ol]
IC50 [1]: 5.4 ± 0.9 nM
IC50 [2]: 37.3 ± 28 nM
effect on the activation of caspases 9 [3]: no effect
effect on the activation of caspases 8 [4]: no effect
IC50 [5]: 32.7 ± 6.6 nM
IC50 [6]: 343 ± 125 nM
effect on the activation of caspases 3/7 ([7]; 0.01 μM): neither 114 nor 120 has an effect
effect on the activation of caspases 3/7 ([7]; 1 μM and 0.1 μM): strong effect
IC50 [8]: 40.8 ± 22 nM
inhibition at 0.5 µM ([9]; Homo sapiens, at 0.5 μM, read-out: Antiproliferative effect on U87/GFP cells: percentage inhibition): 65%
IC50 [10]: 178 ± 83 nM
IC50 [11]: 4.3 ± 0.1 nM
IC50 [12]: 6 ± 7.3 nM
IC50 [13]: 3.2 ± 1.2 nM
inhibition at 0.5 µM ([14]; Homo sapiens, at 0.5 μM, read-out: Antimigratory effect on U87/GFP cells: percentage inhibition): 40%
IC50 [15]: 8 ± 0.4 nM
IC50 [16]: 52.1 ± 14.5 nM
IC50 ([17]; first value of two experiments performed in parallel): 2.6 nM
IC50 ([17]; second value of two experiments performed in parallel): 1.4 nM
Cytotoxicity on KB cells (percentage inhibition of cell viability) ([17]; at 1 μM, relative to reference without compound): 90% at 1 μM
